Where “and” joins values, the source holds several entries; their conditions need not be identical. Equal values may be shown once.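 Growth conditions: 96-well plates. Treatment: test compound, 48 hours, 5 concentrations. Analysis: linear interpolation between bracketing concentrations; unreached endpoints set to highest concentration. The concentration for 50% growth inhibition is given as GI50. At the TGI there is no net growth.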
Legend:
Assay in all cases: DTP human tumour cell line panel, 48 h
HOP-62 NSCLC = system: HOP-62 NSCLC
UO-31 renal = system: UO-31 renal
CAKI-1 renal = system: CAKI-1 renal
SNB-19 CNS = system: SNB-19 CNS
NCI-H460 lung = system: NCI-H460 lung
SF-539 CNS = system: SF-539 CNS
SW-620 colon = system: SW-620 colon
OVCAR-4 ovarian = system: OVCAR-4 ovarian
SK-MEL-5 melanoma = system: SK-MEL-5 melanoma
IGROV1 ovarian = system: IGROV1 ovarian

Row | Structure (SMILES) | GI50 (HOP-62 NSCLC) [µM] | TGI (HOP-62 NSCLC) | GI50 (UO-31 renal) [µM] | TGI (UO-31 renal) | GI50 (CAKI-1 renal) | TGI (CAKI-1 renal) | GI50 (SNB-19 CNS) | TGI (SNB-19 CNS) | GI50 (NCI-H460 lung) | TGI (NCI-H460 lung) | GI50 (SF-539 CNS) [µM] | TGI (SF-539 CNS) | GI50 (SW-620 colon) | TGI (SW-620 colon) | GI50 (OVCAR-4 ovarian) | TGI (OVCAR-4 ovarian) | GI50 (SK-MEL-5 melanoma) [µM] | TGI (SK-MEL-5 melanoma) | GI50 (IGROV1 ovarian) [µM] | TGI (IGROV1 ovarian)
1 | CCC(c1cccc(O)c1)C(CC)c1cccc(O)c1 (centres undefined) | 4.89 | 17.4 µM | 4.23 | 17.8 µM | 11.9 µM | 33 µM | 13.2 µM | 26 µM | 2.98 µM | 12.8 µM | 1.23 | 4.72 µM | 4.44 µM | 16.4 µM | 1.21 µM | 14.3 µM | 1.41 | 3.91 µM | 10.8 | 25.3 µM
2 | COc1cc(Cn2c(-c3nonc3N)nc3ccccc32)ccc1C | 0.568 | 21.3 µM | 0.58 | > 100 µM | 0.477 µM | > 100 µM | 0.626 µM | 45.5 µM | 0.377 µM | > 100 µM | 0.226 | 0.663 µM | 0.334 µM | > 100 µM | 0.731 µM | > 95.2 µM | 0.354 | 19.8 µM | 1.22 | > 61.6 µM
3 | CCOc1ccccc1NC(=O)CCc1nc(=S)[nH][nH]1 | – | > 100 µM | – | > 100 µM | – | > 100 µM | – | > 100 µM | – | > 100 µM | – | > 100 µM | – | > 100 µM | – | > 100 µM | – | > 100 µM | – | > 100 µM
4 | CCN(CC)CCCC(C)Nc1c2ccc(C)cc2nc2ccc(OC)cc12 (centres undefined) | 1.37 | 3.49 µM | 1.05 | 2.36 µM | 2.68 µM | 8.98 µM | 4.78 µM | 35.7 µM | 1.2 µM | 3.74 µM | 1.71 | 3.98 µM | 0.709 µM | 10.2 µM | 1.13 µM | 3.02 µM | 1.65 | 3.03 µM | 0.514 | 3.12 µM
5 | O=C1CC(=O)OC(c2ccc([N+](=O)[O-])cc2)O1 | 2.47 | 6.79 µM | 1.64 | 3.55 µM | 1.44 µM | 3.24 µM | 3.43 µM | 12.3 µM | 2.4 µM | 5.9 µM | 1.98 | 4.3 µM | 1.68 µM | 3.41 µM | 2.82 µM | 8.91 µM | 1.72 | 3.39 µM | 3.1 | 14.3 µM
6 | CC[C@@]1(O)C(=O)OCc2c1cc1n(c2=O)Cc2cc3cc(N)ccc3nc2-1 | 0.00135 | 0.0157 µM and < 0.0151 µM | 0.0117 | 0.169 µM and 0.0358 µM | 0.00361 µM and 0.026 µM | 1.62 µM and 1.21 µM | 0.0169 µM and < 0.0119 µM | 4.11 µM and > 29.4 µM | 0.00149 µM | 0.212 µM | – | 0.0398 µM | 0.0113 µM and < 0.031 µM | 5.06 µM | 0.048 µM and 0.169 µM | 0.233 µM | 0.0238 | 0.195 µM and 0.0366 µM | 0.056 | 3.06 µM and 2.21 µM
7 | O=C1C2Cc3ccccc3CN2C(=O)N1CCN1CCCC1 (centres undefined) | – | > 100 µM | – | > 100 µM | – | > 100 µM | – | > 100 µM | – | > 100 µM | – | > 100 µM | – | > 100 µM | – | > 100 µM | – | > 100 µM | – | > 100 µM
8 | Cc1c2cc[n+](C)cc2c(C)c2c1[nH]c1ccc(O)c(OCC(F)(F)F)c12 | – | 5.28 µM | – | 25.6 µM | – | 29 µM | – | 5.33 µM | – | 48.6 µM | – | 9.72 µM | – | > 55 µM | – | 12.8 µM | – | 11.6 µM | – | 23.1 µM
9 | O=[N+]([O-])c1ccc2c(c1)[O][Sn]([I])([I])[O]2 | > 100 | > 100 µM | > 100 | > 100 µM | > 100 µM | > 100 µM | > 100 µM | > 100 µM | > 100 µM | > 100 µM | > 100 | > 100 µM | > 100 µM | > 100 µM | > 100 µM | > 100 µM | > 100 | > 100 µM | > 100 | > 100 µM
10 | CCN(CC)CCNc1n[n+]([O-])c2ccccc2[n+]1[O-] | – | 20 µM | – | > 79.4 µM and 57.1 µM | 2.89 µM and 6.81 µM | – | – | > 72.1 µM and 56 µM | 3.94 µM and 1.54 µM | 38.4 µM and 12.6 µM | – | 25.7 µM and 42.9 µM | – | 82 µM and 55.9 µM | – | 11.2 µM and 73.6 µM | – | 4.86 µM and 3.31 µM | – | 10.3 µM and 17 µM
11 | Cc1cc(-c2nnc3n2CCCCC3)c(C)n1-c1ccc(Cl)c(Cl)c1 | 16.8 | 32.4 µM | 12.6 | 36.7 µM | 22.3 µM | > 100 µM | 15.5 µM | 47.1 µM | 17.4 µM | 45.7 µM | 16.6 | 32.4 µM | 17.5 µM | 50.9 µM | 8.4 µM | 57.5 µM | 2.18 | 6.08 µM | 17.9 | 42.7 µM
12 | O=C1c2ccccc2-n2c1nc1ccccc1c2=O | – | 41 µM | – | 42.9 µM | – | 42.3 µM | – | > 91.2 µM | – | 12 µM | – | 43.3 µM | – | 70.1 µM | – | 53.7 µM | – | 26 µM | – | > 92.1 µM
13 | Fc1cccc(Cl)c1/C=N\N=C1c2ccccc2-c2ccccc21 | – | > 100 µM | – | > 100 µM | – | > 100 µM | – | > 100 µM | – | > 100 µM | – | > 100 µM | – | > 100 µM | – | > 100 µM | – | > 100 µM | – | > 100 µM
14 | CC(C)[C@H]1C(=O)N[C@@H](CCCN=C(N)N)C(=O)NCC(=O)N[C@@H](CC(=O)O)C(=O)N[C@H](Cc2ccccc2)C(=O)N1C | 7.04 | > 100 µM | > 73.2 | > 100 µM | > 28.7 µM | > 100 µM | 2.66 µM | > 100 µM | 31.6 µM | > 100 µM | > 100 | > 100 µM | – | > 100 µM | > 100 µM | > 100 µM | 0.366 | 1.33 µM | > 62.2 | > 100 µM
15 | O=C(O)CSc1ncccc1[N+](=O)[O-] | – | > 100 µM | – | > 100 µM | – | > 100 µM | – | > 100 µM | – | > 100 µM | – | > 100 µM | – | > 100 µM | – | > 100 µM | – | > 100 µM | – | > 100 µM
16 | CCOC(=O)[C@H]1Nc2ccc(OC)cc2C2c3ccccc3CC21 (some centres undefined) | – | > 100 µM | – | > 100 µM | – | > 100 µM | – | > 100 µM | – | > 100 µM | – | > 100 µM | – | > 100 µM | – | > 100 µM | – | > 100 µM | – | > 100 µM
17 | N#C[C@@H]1C(n2ccc(N)nc2=O)O[C@H](CO)[C@H]1O (some centres undefined) | 3.97 | > 100 µM | 6.18 | > 83.4 µM | 3.49 µM | > 100 µM | 10.3 µM | > 100 µM | 0.693 µM | > 100 µM | > 100 | > 100 µM | 53.6 µM | > 100 µM | > 100 µM | > 100 µM | 38.3 | > 100 µM | > 100 | > 100 µM
18 | CC(C)(C)NC(=O)[C@H]1C[C@H]2CCCC[C@H]2CN1C[C@@H](O)[C@H](Cc1ccccc1)NC(=O)[C@H](CC(N)=O)NC(=O)c1ccc2ccccc2n1 | 15.2 | 30.7 µM | 15.5 | 29.9 µM | 16.4 µM | 33.1 µM | 7.97 µM | 23 µM | 12.7 µM | > 51.4 µM | 2.93 | 23.9 µM | 20.3 µM | 48.8 µM | 14 µM | 31.5 µM | 14.5 | 30 µM | 15.4 | 38.8 µM

From PubChem BioAssay (NCI)
